Reference: ChEMBL document CHEMBL5465560, “Selectivity Literature for EUbOPEN Chemogenomic Library” (2024)
Values belong to the molecule of their own block, whether it stands above or below them.

What was measured:
[1] = tested on: T1, Receptor-type tyrosine-protein kinase FLT3 (Homo sapiens), P36888 [K663Q]; experiment: Selectivity interaction (KinomeScan (DiscoverX)) EUB0000607a FLT3; conditions: at 10 µM
T1 sequence (whole entry): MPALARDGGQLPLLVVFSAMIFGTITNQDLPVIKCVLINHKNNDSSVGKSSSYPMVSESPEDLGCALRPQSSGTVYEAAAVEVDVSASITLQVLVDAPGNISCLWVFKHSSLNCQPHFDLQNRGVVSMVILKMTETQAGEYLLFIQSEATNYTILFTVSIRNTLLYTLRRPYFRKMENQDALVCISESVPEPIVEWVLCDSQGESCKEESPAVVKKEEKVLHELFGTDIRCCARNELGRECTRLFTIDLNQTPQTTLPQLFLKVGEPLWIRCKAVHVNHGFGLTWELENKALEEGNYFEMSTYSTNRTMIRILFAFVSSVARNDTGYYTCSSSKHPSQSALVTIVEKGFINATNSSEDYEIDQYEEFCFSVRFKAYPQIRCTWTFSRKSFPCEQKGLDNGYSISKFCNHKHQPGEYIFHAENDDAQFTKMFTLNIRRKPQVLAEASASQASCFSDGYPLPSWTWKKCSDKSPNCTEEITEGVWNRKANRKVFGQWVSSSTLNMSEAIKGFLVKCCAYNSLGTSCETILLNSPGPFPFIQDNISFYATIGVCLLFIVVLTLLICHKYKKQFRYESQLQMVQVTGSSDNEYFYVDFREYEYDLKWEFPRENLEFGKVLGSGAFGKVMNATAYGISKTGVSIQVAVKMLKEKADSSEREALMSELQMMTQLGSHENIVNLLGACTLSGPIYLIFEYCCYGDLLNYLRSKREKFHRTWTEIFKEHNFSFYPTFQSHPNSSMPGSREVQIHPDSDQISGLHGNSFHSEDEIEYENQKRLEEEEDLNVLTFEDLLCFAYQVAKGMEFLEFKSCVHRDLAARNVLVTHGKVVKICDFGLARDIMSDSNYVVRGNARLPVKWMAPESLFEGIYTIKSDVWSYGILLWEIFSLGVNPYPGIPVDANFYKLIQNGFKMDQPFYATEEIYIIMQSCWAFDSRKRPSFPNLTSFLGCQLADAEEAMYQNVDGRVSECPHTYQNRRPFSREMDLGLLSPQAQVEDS

[2] = target: T2, Mitogen-activated protein kinase kinase kinase 7 (Homo sapiens) (UniProt O43318); experiment: Selectivity interaction (ActivX KiNativ screen (kinase selectivity in THP-1 cell lysates)) EUB0000639a MAP3K7; assay type: subcellular; conditions: lysate
T2 sequence (whole entry): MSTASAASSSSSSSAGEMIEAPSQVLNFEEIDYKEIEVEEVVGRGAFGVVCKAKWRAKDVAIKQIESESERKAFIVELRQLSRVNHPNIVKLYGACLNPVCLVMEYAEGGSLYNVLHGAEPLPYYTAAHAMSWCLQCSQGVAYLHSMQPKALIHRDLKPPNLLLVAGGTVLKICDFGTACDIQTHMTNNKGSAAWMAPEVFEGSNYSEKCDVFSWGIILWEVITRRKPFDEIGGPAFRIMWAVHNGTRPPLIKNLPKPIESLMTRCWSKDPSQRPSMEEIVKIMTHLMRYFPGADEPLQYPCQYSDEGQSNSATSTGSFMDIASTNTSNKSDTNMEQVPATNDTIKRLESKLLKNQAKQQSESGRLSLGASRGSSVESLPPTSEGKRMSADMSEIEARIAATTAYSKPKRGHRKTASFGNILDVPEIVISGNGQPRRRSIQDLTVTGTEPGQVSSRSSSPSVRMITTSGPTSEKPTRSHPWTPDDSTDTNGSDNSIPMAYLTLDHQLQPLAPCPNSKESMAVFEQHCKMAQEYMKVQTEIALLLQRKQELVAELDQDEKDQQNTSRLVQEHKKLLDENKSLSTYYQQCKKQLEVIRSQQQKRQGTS

[3] = target: T3, STE20-related kinase adapter protein alpha (Homo sapiens) (UniProt Q7RTN6); experiment: Selectivity interaction (ActivX KiNativ screen (kinase selectivity in THP-1 cell lysates)) EUB0000639a STRADA; assay type: subcellular; conditions: lysate, at 0.01 µM
T3 sequence (whole entry): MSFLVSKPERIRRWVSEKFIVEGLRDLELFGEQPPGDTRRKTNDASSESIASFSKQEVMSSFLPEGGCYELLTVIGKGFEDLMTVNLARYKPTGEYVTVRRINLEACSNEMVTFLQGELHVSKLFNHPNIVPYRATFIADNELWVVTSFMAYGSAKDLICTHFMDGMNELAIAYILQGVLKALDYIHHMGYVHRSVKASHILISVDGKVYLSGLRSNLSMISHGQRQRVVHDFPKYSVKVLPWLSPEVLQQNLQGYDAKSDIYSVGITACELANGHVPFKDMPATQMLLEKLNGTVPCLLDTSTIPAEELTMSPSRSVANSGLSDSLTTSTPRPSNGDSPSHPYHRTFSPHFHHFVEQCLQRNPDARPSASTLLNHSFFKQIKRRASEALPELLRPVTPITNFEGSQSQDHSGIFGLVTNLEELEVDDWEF

[4] = target: Ribosomal protein S6 kinase alpha-3 (Homo sapiens, UniProt P51812); experiment: Selectivity interaction (KinomeScan (DiscoverX)) EUB0001049a RPS6KA3; conditions: at 1 µM
Ribosomal protein S6 kinase alpha-3, sequence (P51812 whole entry): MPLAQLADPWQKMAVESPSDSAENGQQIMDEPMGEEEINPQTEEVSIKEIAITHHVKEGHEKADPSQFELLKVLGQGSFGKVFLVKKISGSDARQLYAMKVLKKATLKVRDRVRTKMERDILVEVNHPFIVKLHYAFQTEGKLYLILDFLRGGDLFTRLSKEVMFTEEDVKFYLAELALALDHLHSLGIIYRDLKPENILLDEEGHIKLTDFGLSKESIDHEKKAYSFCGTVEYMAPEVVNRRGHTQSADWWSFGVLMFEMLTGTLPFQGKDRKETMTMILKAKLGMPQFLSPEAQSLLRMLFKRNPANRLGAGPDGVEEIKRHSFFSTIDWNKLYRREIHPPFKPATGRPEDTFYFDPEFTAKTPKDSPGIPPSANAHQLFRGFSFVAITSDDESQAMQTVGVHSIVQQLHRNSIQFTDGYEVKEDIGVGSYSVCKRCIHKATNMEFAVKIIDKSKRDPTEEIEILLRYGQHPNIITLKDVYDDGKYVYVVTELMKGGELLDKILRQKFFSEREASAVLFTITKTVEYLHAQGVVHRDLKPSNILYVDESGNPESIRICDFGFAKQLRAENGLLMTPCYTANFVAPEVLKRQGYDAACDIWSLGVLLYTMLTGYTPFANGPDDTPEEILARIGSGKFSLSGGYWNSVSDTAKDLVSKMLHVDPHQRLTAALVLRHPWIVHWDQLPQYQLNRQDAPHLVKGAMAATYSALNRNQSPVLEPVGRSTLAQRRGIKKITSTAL

Structure (SMILES): CNC(=O)Nc1ccc(-c2nc(N3CC4CCC(C3)O4)c3cnn(C4CCC5(CC4)OCCO5)c3n2)cc1
% of control [1]: 69%

% of inhibition ([2]; at 0.01 µM): 6.8% | % of inhibition ([2]; at 0.04 µM): 3.8% | % of inhibition ([2]; at 0.2 µM): -2.9% | % of inhibition ([2]; at 1 µM): -3.1% | % of inhibition ([2]; at 5 µM): -8.6% | % of inhibition [3]: -6.5%
Structure (SMILES): CC[C@@H]1[C@H](F)C(=O)N[C@@H]1COc1nccc2cc(C(N)=O)c(OC)cc12 [ZIMLOVISERTIB]

Structure (SMILES): COc1cc(Nc2nc(C)cc(-c3cnn4nc(OC)ccc34)n2)cc(C(F)(F)F)c1
% of control [4]: 98%
